Test results: PubChem BioAssay (NCI)
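Results reflect a 48-hour exposure of cells in 96-well plates to compound at five concentrations. The concentration for 50% growth inhibition is given as GI50. The concentration for full growth arrest is given as TGI.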

Assays:
Assay in all cases: NCI-60 cell line screen, 48 h
SNB-19 CNS = tested on: SNB-19 CNS
COLO 205 colon = tested on: COLO 205 colon
UACC-62 melanoma = tested on: UACC-62 melanoma
SK-OV-3 ovarian = tested on: SK-OV-3 ovarian
SW-620 colon = tested on: SW-620 colon
OVCAR-5 ovarian = tested on: OVCAR-5 ovarian
HOP-92 NSCLC = tested on: HOP-92 NSCLC
SK-MEL-28 melanoma = tested on: SK-MEL-28 melanoma
SNB-75 CNS = tested on: SNB-75 CNS
T-47D breast = tested on: T-47D breast
SK-MEL-5 melanoma = tested on: SK-MEL-5 melanoma
CAKI-1 renal = tested on: CAKI-1 renal
MALME-3M melanoma = tested on: MALME-3M melanoma
EKVX NSCLC = tested on: EKVX NSCLC
SF-539 CNS = tested on: SF-539 CNS
RXF 393 renal = tested on: RXF 393 renal
BT-549 breast = tested on: BT-549 breast
MDA-MB-231 breast = tested on: MDA-MB-231 breast
NCI-H460 lung = tested on: NCI-H460 lung
CCRF-CEM leukemia = tested on: CCRF-CEM leukemia
SK-MEL-2 melanoma = tested on: SK-MEL-2 melanoma
PC-3 prostate = tested on: PC-3 prostate
SR leukemia = tested on: SR leukemia
UO-31 renal = tested on: UO-31 renal
SF-295 CNS = tested on: SF-295 CNS
MOLT-4 leukemia = tested on: MOLT-4 leukemia
HCC-2998 colon = tested on: HCC-2998 colon
LOX IMVI melanoma = tested on: LOX IMVI melanoma
TK-10 renal = tested on: TK-10 renal
SN12C renal = tested on: SN12C renal
IGROV1 ovarian = tested on: IGROV1 ovarian
NCI-H522 lung = tested on: NCI-H522 lung
HL-60(TB) leukemia = tested on: HL-60(TB) leukemia
ACHN renal = tested on: ACHN renal
NCI-H226 lung = tested on: NCI-H226 lung
KM12 colon = tested on: KM12 colon
DU-145 prostate = tested on: DU-145 prostate
HT29 colon = tested on: HT29 colon
M14 melanoma = tested on: M14 melanoma
A498 renal = tested on: A498 renal
MCF7 breast = tested on: MCF7 breast
MDA-MB-435 = tested on: MDA-MB-435
UACC-257 melanoma = tested on: UACC-257 melanoma
OVCAR-4 ovarian = tested on: OVCAR-4 ovarian
SF-268 CNS = tested on: SF-268 CNS
OVCAR-3 ovarian = tested on: OVCAR-3 ovarian
HCT-15 colon = tested on: HCT-15 colon
A549 NSCLC = tested on: A549 NSCLC
NCI-H23 lung = tested on: NCI-H23 lung

## COc1cc(C2CC(c3cccc(Nc4ccncc4)c3)=NN2c2ccccc2)cc(OC)c1OC (stereo not drawn)
SNB-19 CNS
  GI50: 1640 nM
  TGI: 3290 nM
COLO 205 colon
  GI50: 1800 nM
  TGI: 4250 nM
UACC-62 melanoma
  GI50: 1730 nM
  TGI: 3180 nM
SK-OV-3 ovarian
  GI50: 1780 nM
  TGI: 3500 nM
SW-620 colon
  GI50: 1660 nM
  TGI: 3160 nM
OVCAR-5 ovarian
  GI50: 2170 nM
  TGI: 5230 nM
HOP-92 NSCLC
  GI50: 1410 nM
  TGI: 2940 nM
SK-MEL-28 melanoma
  GI50: 1770 nM
  TGI: 3300 nM
SNB-75 CNS
  GI50: 1420 nM
  TGI: 3740 nM
T-47D breast
  GI50: 2120 nM
  TGI: 6610 nM
SK-MEL-5 melanoma
  GI50: 1780 nM
  TGI: 3170 nM
CAKI-1 renal
  GI50: 1550 nM
  TGI: 3010 nM
MALME-3M melanoma
  GI50: 1610 nM
  TGI: 3030 nM
EKVX NSCLC
  GI50: 1800 nM
  TGI: 4160 nM
SF-539 CNS
  GI50: 1710 nM
  TGI: 3110 nM
RXF 393 renal
  GI50: 1560 nM
  TGI: 2950 nM
BT-549 breast
  GI50: 1800 nM
  TGI: 3560 nM
MDA-MB-231 breast
  GI50: 1520 nM
  TGI: 2890 nM
NCI-H460 lung
  GI50: 1770 nM
  TGI: 3270 nM
CCRF-CEM leukemia
  GI50: 2930 nM
  TGI: 8530 nM
SK-MEL-2 melanoma
  GI50: 1960 nM
  TGI: 3800 nM
PC-3 prostate
  GI50: 1790 nM
  TGI: 4230 nM
SR leukemia
  GI50: 1560 nM
  TGI: 3580 nM
UO-31 renal
  GI50: 1420 nM
  TGI: 2810 nM
SF-295 CNS
  GI50: 1810 nM
  TGI: 3280 nM
MOLT-4 leukemia
  GI50: 1860 nM
  TGI: 4700 nM
HCC-2998 colon
  GI50: 1800 nM
  TGI: 3300 nM
LOX IMVI melanoma
  GI50: 1760 nM
  TGI: 3150 nM
TK-10 renal
  GI50: 1790 nM
  TGI: 3420 nM
SN12C renal
  GI50: 1600 nM
  TGI: 3050 nM
IGROV1 ovarian
  GI50: 1770 nM
  TGI: 3610 nM
NCI-H522 lung
  GI50: 1750 nM
  TGI: 3620 nM
HL-60(TB) leukemia
  GI50: 1720 nM
  TGI: 3650 nM
ACHN renal
  GI50: 1700 nM
  TGI: 3110 nM
NCI-H226 lung
  GI50: 2110 nM
  TGI: 5270 nM
KM12 colon
  GI50: 1720 nM
  TGI: 3460 nM
DU-145 prostate
  GI50: 1790 nM
  TGI: 3400 nM
HT29 colon
  GI50: 1930 nM
  TGI: 4530 nM
M14 melanoma
  GI50: 1910 nM
  TGI: 4120 nM
A498 renal
  GI50: 1630 nM
  TGI: 7140 nM
MCF7 breast
  GI50: 1840 nM
  TGI: 4040 nM
MDA-MB-435
  GI50: 1610 nM
  TGI: 3120 nM
UACC-257 melanoma
  GI50: 1950 nM
  TGI: 3820 nM
OVCAR-4 ovarian
  GI50: 1710 nM
  TGI: 3730 nM
SF-268 CNS
  GI50: 1700 nM
  TGI: 3450 nM
OVCAR-3 ovarian
  GI50: 1660 nM
  TGI: 3140 nM
HCT-15 colon
  GI50: 1910 nM
  TGI: 3750 nM
A549 NSCLC
  GI50: 1730 nM
  TGI: 3530 nM
NCI-H23 lung
  GI50: 1940 nM
  TGI: 3870 nM
